Laboratory results as given in ChEMBL document CHEMBL1201862, “PubChem BioAssay data set” (2004).
Values joined by “and” are separate entries in the source; they are usually repeats but may differ in a detail not shown here. Identical values can stand only once. Active and inactive are the calls of the source.

Assays:
[1] = target: T1, Corticotropin-releasing factor receptor 2/Corticotropin-releasing factor-binding protein (Homo sapiens, UniProt P24387+Q13324); assay: activators of CRF receptor 2 with binding protein – uHTS hits, confirmation (AID 602473); format: functional; conditions: read-out: EC50_Mean
T1 sequence (Q13324 whole entry): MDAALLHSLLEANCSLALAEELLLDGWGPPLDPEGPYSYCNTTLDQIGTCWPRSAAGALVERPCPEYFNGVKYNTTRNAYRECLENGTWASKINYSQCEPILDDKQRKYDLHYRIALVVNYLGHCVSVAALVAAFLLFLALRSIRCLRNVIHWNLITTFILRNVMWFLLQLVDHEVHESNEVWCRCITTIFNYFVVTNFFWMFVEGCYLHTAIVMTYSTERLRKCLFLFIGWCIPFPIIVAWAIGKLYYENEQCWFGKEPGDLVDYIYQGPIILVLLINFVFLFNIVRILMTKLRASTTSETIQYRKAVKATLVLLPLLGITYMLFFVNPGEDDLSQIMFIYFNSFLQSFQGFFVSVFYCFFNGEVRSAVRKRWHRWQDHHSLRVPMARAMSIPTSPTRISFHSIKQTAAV
T1 sequence (P24387 whole entry): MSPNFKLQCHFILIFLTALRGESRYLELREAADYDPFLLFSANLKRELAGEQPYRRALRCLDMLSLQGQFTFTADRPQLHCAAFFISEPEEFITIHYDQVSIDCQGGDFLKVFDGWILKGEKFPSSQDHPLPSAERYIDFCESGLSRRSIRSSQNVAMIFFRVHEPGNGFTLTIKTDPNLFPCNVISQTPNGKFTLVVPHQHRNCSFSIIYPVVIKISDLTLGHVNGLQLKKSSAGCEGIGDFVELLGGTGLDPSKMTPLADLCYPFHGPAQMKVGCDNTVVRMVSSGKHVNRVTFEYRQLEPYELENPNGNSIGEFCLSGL

[2] = target: T2, Heat shock factor protein 1 (Mus musculus, UniProt P38532); assay: decrease of HSF1-responsive luciferase luminescence – cell-based, NIH3T3, dose retest, confirmation (AID 2382); format: functional;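 further: NIH3T3 fibroblasts with HSF1-driven luciferase reporter stressed by proteasome inhibitor MG132; luminescence from HSF1-driven luciferase expression after 8 hours of MG132 stress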
T2 sequence (P38532 whole entry): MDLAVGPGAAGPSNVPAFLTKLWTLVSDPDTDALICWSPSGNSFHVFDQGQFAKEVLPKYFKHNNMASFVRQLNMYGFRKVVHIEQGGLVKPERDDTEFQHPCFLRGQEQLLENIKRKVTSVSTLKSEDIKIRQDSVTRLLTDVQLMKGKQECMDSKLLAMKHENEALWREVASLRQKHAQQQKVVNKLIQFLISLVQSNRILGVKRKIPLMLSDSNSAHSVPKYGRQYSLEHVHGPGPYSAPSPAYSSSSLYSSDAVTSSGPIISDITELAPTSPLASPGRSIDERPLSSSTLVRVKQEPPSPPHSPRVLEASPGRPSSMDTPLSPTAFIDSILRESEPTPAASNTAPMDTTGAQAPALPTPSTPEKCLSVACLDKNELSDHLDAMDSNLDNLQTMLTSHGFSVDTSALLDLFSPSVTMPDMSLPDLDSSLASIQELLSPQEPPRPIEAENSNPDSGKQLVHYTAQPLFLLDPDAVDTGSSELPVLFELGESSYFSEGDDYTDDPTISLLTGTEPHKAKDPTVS

Cytochrome P450 3A4 = Cytochrome P450 3A4 (Homo sapiens, UniProt P08684);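 further: CYP3A4 tested as one member of a cytochrome P450 panel screen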
Cytochrome P450 3A4, sequence (P08684 whole entry): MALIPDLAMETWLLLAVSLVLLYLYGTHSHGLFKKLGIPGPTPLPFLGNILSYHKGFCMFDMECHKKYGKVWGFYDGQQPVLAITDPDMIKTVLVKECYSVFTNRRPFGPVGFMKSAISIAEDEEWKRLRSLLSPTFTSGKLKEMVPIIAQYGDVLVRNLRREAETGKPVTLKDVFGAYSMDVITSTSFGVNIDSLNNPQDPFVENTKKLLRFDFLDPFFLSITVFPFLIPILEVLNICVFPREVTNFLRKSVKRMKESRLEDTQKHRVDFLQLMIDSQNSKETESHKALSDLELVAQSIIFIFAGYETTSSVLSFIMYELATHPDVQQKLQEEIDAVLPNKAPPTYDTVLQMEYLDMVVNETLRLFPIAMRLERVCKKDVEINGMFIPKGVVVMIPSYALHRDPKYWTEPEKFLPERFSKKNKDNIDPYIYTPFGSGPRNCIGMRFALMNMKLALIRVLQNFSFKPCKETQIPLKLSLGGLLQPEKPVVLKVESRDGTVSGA

Cytochrome P450 2D6 = Cytochrome P450 2D6 (Homo sapiens, UniProt P10635);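 further: CYP2D6 member of a cytochrome P450 panel assay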
Cytochrome P450 2D6, sequence (P10635 whole entry): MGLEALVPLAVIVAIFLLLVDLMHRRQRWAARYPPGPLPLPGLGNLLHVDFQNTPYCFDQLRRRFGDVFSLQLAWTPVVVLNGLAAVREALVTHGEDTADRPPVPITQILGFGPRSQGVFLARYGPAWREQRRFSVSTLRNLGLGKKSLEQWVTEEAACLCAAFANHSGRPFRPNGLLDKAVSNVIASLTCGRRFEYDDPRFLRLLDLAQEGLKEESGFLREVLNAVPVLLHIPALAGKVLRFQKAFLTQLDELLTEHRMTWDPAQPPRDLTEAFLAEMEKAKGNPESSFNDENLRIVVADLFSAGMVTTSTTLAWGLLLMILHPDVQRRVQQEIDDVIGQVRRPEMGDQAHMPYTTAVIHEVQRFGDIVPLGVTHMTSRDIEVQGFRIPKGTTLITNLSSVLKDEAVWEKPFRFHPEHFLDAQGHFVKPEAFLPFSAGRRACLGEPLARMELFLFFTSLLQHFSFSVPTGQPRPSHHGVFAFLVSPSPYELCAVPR

Cytochrome P450 2C9 = Cytochrome P450 2C9 (Homo sapiens, UniProt P11712)
Cytochrome P450 2C9, sequence (P11712 whole entry): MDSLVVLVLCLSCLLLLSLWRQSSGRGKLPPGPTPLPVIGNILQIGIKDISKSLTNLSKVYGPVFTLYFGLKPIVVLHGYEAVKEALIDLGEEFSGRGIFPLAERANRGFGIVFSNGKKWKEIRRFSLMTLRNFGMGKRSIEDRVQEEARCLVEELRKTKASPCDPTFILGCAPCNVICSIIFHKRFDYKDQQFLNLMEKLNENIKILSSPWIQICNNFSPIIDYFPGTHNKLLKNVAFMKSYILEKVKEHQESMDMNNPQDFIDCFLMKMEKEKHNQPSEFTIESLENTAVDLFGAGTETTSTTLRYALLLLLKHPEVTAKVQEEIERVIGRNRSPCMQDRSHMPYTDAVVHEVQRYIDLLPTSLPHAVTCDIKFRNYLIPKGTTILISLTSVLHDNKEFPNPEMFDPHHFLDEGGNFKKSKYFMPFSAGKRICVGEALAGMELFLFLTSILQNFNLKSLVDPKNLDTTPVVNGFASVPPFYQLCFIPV

cells = format: functional
[3] = viability of PTEN-deleted HCT116 cells – cell-based, HCT116 PTEN knockout, dose response (AID 1047); format: functional;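 further: HCT116 colon tumor cells with PTEN knocked out; cells exposed to compound for 60 hours before readout; potency for loss of cell viability measured by luminescence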
[4] = viability of HCT116 lacking mutant beta-catenin – cell-based, human colon tumor, dose response (AID 1045); format: functional;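 further: HCT116 colon tumor cells with beta catenin knocked out; cells exposed to compound for 60 hours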
[5] = target: T3, Rac GTPase-activating protein 1 (Homo sapiens, UniProt Q9H0H5); assay: blockers of MgcRacGAP-driven Rac1 GTP hydrolysis – biochemical, ADP Hunter fluorescence, primary and confirmatory, confirmation (AID 624330); format: functional
T3 sequence (Q9H0H5 whole entry): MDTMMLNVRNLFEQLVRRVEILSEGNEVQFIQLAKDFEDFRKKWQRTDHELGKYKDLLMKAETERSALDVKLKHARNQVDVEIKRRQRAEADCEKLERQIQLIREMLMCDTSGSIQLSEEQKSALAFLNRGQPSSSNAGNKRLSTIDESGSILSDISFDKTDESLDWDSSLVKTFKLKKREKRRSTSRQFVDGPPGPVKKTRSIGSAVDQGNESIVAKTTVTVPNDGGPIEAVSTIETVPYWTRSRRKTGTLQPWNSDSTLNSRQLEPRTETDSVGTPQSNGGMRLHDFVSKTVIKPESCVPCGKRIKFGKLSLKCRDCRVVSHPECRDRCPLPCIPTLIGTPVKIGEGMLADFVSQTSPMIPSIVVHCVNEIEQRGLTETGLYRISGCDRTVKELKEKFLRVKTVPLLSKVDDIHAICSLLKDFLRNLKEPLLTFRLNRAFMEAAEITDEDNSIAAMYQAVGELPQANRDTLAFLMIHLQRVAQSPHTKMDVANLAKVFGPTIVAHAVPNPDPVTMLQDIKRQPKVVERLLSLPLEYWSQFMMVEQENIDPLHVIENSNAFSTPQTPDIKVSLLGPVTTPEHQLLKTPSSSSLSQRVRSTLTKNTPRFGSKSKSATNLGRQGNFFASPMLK

Cytochrome P450 2C19 = Cytochrome P450 2C19 (Homo sapiens, UniProt P33261); assay: Cytochrome panel assay with activity outcomes. Panel member name: p450-cyp2c19 Compounds with AC50 equal or less than 10 uM are considered active; format: functional
Cytochrome P450 2C19, sequence (P33261 whole entry): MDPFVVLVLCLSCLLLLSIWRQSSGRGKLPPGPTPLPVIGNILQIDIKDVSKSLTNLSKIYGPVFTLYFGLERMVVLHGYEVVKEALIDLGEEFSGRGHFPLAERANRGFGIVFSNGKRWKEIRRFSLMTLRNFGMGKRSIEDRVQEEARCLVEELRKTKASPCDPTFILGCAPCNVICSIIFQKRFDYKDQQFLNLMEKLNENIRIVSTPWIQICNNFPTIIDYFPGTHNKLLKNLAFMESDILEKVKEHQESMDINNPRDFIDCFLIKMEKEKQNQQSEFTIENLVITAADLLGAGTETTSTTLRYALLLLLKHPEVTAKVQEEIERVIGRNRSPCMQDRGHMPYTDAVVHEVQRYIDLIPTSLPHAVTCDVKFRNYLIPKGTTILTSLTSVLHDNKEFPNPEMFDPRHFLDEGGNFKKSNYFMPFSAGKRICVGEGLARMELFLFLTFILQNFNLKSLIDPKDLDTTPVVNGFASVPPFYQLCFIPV

[6] = loss of viability in HepG2 cells – cell-based, CellTiter-Glo, cherry-picked, cytotoxicity control for Shn3 inhibitor project, dose response (AID 624134); format: functional
[7] = reduction of Shn3 3'UTR-driven luciferase in osteoblasts – cell-based, Clone20 osteoblasts, firefly luciferase, cherry-picked, dose response (AID 624132); format: functional;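 further: firefly luciferase luminescence from reporter carrying the Shn3 3'UTR in osteoblasts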
[8] = non-specific 3'UTR reporter inhibition in Clone20-Shn3RL – cell-based, Renilla luciferase, cherry-picked, counter-screen for Shn3 inhibitor project, dose response (AID 624133); format: functional
[9] = Trypanosoma cruzi growth suppression in host cells – NIH3T3 host cells, beta-gal luminescence, confirmation (AID 2044); format: functional, cell-based;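 further: intracellular parasites grown in NIH/3T3 mouse fibroblasts as host cells; luminescent beta-galactosidase reporter signal from transgenic T. cruzi replicating inside host cells; inhibitors lower the luminescence signal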
[10] = NIH3T3 cell viability loss – ATP luminescence, mouse fibroblasts, counter-screen, dose response (AID 2010); format: functional, cell-based;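 further: cells exposed to compound for about 90 hours before reading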
[11] = viability of uninfected HEp-2 cells – cell-based, HTS, cytotoxicity control for RSV inhibitor project, dose response (AID 2410); format: functional; conditions: human respiratory syncytial virus
[12] = Luminescence Cell-Based Dose Retest to Confirm Inhibitors of Cancer Stem Cells. [Related pubchem assays (depositor defined):AID2717, AID2721]; format: functional; conditions: Homo sapiens

CCOC(=O)c1sc(NC(=S)NC(=O)c2cccc(OC)c2)nc1C
EC50 [1]: 15 µM (active)

Nn1c(SCc2ccccc2)nnc1-c1ccco1
EC50 [2]: > 195 µM (not active)

C/C=C1\C[N@@+]2(C)CC[C@@]34C(=C(C=O)[C@H]1C[C@H]32)Nc1ccccc14
AC50 (Cytochrome P450 3A4): 0.00126 µM (inconclusive)
AC50 (Cytochrome P450 2D6): 6.31 µM (inconclusive)

N#Cc1ccc(C(c2nnnn2C2CCCC2)N2CCC(Cc3ccccc3)CC2)cc1 (stereo unspecified)
AC50 (Cytochrome P450 2C9): 11.2 µM (inconclusive)
AC50 (Cytochrome P450 2D6): 10 µM (inconclusive)

O=C(OCC(=O)C12CC3CC(CC(C3)C1)C2)c1ccccn1
IC50 (cells): 37.8 µM (active)

COC(=O)c1[nH]c2ccc(C)cc2c1NC(=O)NC1CCCCC1
EC50 [3]: 20.2 µM (active)
EC50 [4]: 26.5 µM (active)

COc1ccc(-c2ncc3ccccn23)cc1OC
IC50 [5]: 126 µM (active)

COCCNC(=S)N/N=C/c1ccc(-c2ccc([N+](=O)[O-])cc2)o1
EC50 [1]: 5.95 µM (active)

CCNc1ncc2nc(-c3cn(C)c4ccccc34)c(=O)n(C)c2n1
AC50 (Cytochrome P450 3A4): 10 µM (inconclusive)
AC50 (Cytochrome P450 2C9): 39.8 µM (inconclusive)
AC50 (Cytochrome P450 2D6): 12.6 µM (inconclusive)

CCOCCN1CCC(OC(C)=O)C(C)C1 (stereo unspecified)
AC50 (Cytochrome P450 2C19; read-out: AC50): 3.16 µM (inconclusive)
AC50 (Cytochrome P450 2D6): 12.6 µM (inconclusive)

CCOc1ccc(CNC(c2ccccc2)c2ccccc2)cc1
EC50 [2]: > 195 µM (not active)

COc1ccc(-c2cc(C(F)(F)F)nc(N3CCN(C)CC3)n2)cc1OC
EC50 [3]: 29.2 µM (active)
EC50 [4]: 30.2 µM (active)
AC50 (Cytochrome P450 2D6): 28.2 µM (inconclusive)

Cc1nn(Cc2c(F)c(F)c(F)c(F)c2F)c(C)c1NC(=O)c1c(-c2ccccc2)nn(-c2ccccc2)c1C
EC50 [3]: 21.9 µM (active)
EC50 [4]: 25.8 µM (active)

O=C(c1ccco1)N1CCC[C@@]2(CCN(c3ccncc3)C2)C1
AC50 (Cytochrome P450 2C9): 15.8 µM (inconclusive)
AC50 (Cytochrome P450 2D6): 25.1 µM (inconclusive)

CCOc1cc(/C=N/NC(=O)CCn2nc(C)cc2C)ccc1O
IC50 [5]: 61.5 µM (active)

CN(c1cccc(Cl)c1)S(=O)(=O)c1cccc(C(=O)NCc2ccncc2)c1
AC50 [6]: 61.5 µM (active)
AC50 [7]: < 0.26 µM (active)
AC50 [8]: 0.664 µM (active)

O=S(=O)(NCC1(N2CCOCC2)CCCCC1)c1ccc(Cl)cc1C(F)(F)F
EC50 [1]: 5.65 µM (active)

Cc1cccc(Oc2ncc(-c3ccc(Cl)cc3)cn2)c1C
AC50 (Cytochrome P450 3A4): 25.1 µM (inconclusive)
AC50 (Cytochrome P450 2D6): 17.8 µM (inconclusive)

c1ncc(-c2ccoc2)c(NC2CC2)n1
AC50 (Cytochrome P450 2C19; read-out: AC50): 39.8 µM (inconclusive)
AC50 (Cytochrome P450 2D6): 25.1 µM (inconclusive)

COc1ccccc1N1CCN(CCCCN2C(=O)c3ccccc3C2=O)CC1 [NAN-190]
AC50 (Cytochrome P450 3A4): 31.6 µM (inconclusive) and 1.58 µM (inconclusive)
AC50 (Cytochrome P450 2D6): 12.6 µM (inconclusive) and 10 µM (inconclusive)

CCN(CC)S(=O)(=O)c1ccc(C(=O)OCn2nnc3ccccc3c2=O)cc1
IC50 (cells): 17.9 µM (active)

N#CC1=C(N)Oc2[nH]nc(CSc3ccccc3)c2C12C(=O)Nc1ccccc12 (stereo unspecified)
EC50 [2]: > 195 µM (not active)

COc1ccccc1NCC(O)Cn1c2ccccc2c2ccccc21 (stereo unspecified)
EC50 [3]: 34.3 µM (active)
EC50 [4]: 43.6 µM (active)

CC(C)c1nccn1Cc1ccc(Cl)cc1Cl
AC50 (Cytochrome P450 2C19; read-out: AC50): 2 µM (inconclusive)
AC50 (Cytochrome P450 2D6): 3.16 µM (inconclusive)

CC1(C)CC2CC(C)(CN2C(=O)CCCN2C(=O)c3ccccc3C2=O)C1 (stereo unspecified)
EC50 [2]: > 195 µM (not active)

COc1cc(OC)c(OC)cc1CNc1cc(C)ccc1OC
AC50 [6]: 47.2 µM (active)
AC50 [7]: 18.1 µM (active)
AC50 [8]: 7.92 µM (active)

Cc1cccc(CN(C)CCc2ccccn2)c1
EC50 [9]: 0.517 µM (active)
EC50 [10]: > 30 µM (not active)
AC50 (Cytochrome P450 2C9): 0.355 µM (inconclusive)
AC50 (Cytochrome P450 2D6): 2.51 µM (inconclusive)

CCN1C(=O)/C(=C/Nc2ccccc2)OC1=S
EC50 [2]: > 195 µM (not active)

COc1ccccc1C1=NOC(COC(=O)c2ccc([N+](=O)[O-])cc2)C1 (stereo unspecified)
IC50 (cells): 3.93 µM (active)

Cc1c(C(=O)Nc2ccncc2)sc2nc(-c3ccc(F)cc3)cn12
CC50 [11]: 5.09 µM (active)
EC50 [3]: 27.9 µM (active)
EC50 [4]: 29.3 µM (active)

Clc1ccc(NN(Cc2ccncc2)c2ccc(Cl)cc2)cc1
EC50 [1]: > 53 µM (inactive)

COC(=O)[C@@H](NC(=O)c1cc(COc2cncc(Cl)c2)on1)c1ccccc1
IC50 (cells): 5.52 µM (active)

COCCCn1c(-c2ccco2)nc2ccccc2c1=O
EC50 [2]: > 195 µM (not active)

O=C(OCC12CC3CC(CC(C3)C1)C2)c1ccc(NCc2cc(O)ccc2O)cc1
AC50 [6]: 66.7 µM (active)
AC50 [7]: 3.25 µM (active)
AC50 [8]: 7.26 µM (active)

Cc1cc2c(nc1C)CCCN2C[C@H](C)O/N=C1/[C@H]2O[C@@H]2[C@@H](O)[C@H]2[C@H]1CCn1c(=O)n(-c3ccccc3)c(=O)n12
AC50 (Cytochrome P450 3A4): 6.31 µM (inconclusive)
AC50 (Cytochrome P450 2D6): 2.51 µM (inconclusive)

Cc1ccccc1CN(C)CCc1ccccn1
IC50 [5]: 123 µM (active)

Cc1ccc2oc(=O)c(/C=C(\O)c3ccccc3)nc2c1
EC50 [1]: 12.1 µM (active)
IC50 [5]: 48.6 µM (active)

O=C(Cn1c(C(=O)NCc2ccco2)cc2sccc21)c1ccccc1
IC50 [5]: 139 µM (active)

Cc1ccc(S(=O)(=O)N2CCN(c3ncnc4sccc34)CC2)cc1C
AC50 [6]: 5.96 µM (active)
AC50 [7]: 3.53 µM (active)
AC50 [8]: 6.17 µM (active)

O=C(Nc1ccc2c(c1)OCCO2)c1cccc2nc3ccccc3nc12
EC50 [3]: 93.9 µM (active)
EC50 [9]: 2.09 µM (active)
EC50 [10]: > 60 µM (not active)
EC50 [4]: 47 µM (active)
AC50 (Cytochrome P450 2D6): 8.91 µM (inconclusive)
AC50 [12]: 2.59 µM (active)

CC(C)COc1ccc(C2(C#N)CC[N+](C)(C)CC2)cc1.[Br-]
AC50 (Cytochrome P450 3A4): 39.8 µM (inconclusive)
AC50 (Cytochrome P450 2C19): inconclusive
AC50 (Cytochrome P450 2D6): 11.2 µM (inconclusive)

CCc1cc2c(nc1CC)CCN(CC/C(C)=N/OC[C@@H](O)[C@@H]1O[C@@H]3OC(C)(C)O[C@@H]3[C@H]1O)C2
AC50 (Cytochrome P450 3A4): 6.31 µM (inconclusive)
AC50 (Cytochrome P450 2C19; read-out: AC50): 0.0316 µM (inconclusive)
AC50 (Cytochrome P450 2D6): 6.31 µM (inconclusive)
